# Experimental data reported in US9493460B2, “Diimide compounds” (UCL BUSINESS PLC, priority 2013, dated 2016).
# pIC50: −log10 of the molar value.
# Assays:
# [1] = Pharmacokinetics after bolus IV injection; assay type: in vivo, Balb/c female mice; conditions: bolus IV 20 mg/kg, mice
# Excerpt: Balb/c female mice (7-8 weeks old) were housed in microisolator cages, fed with commercial mouse food (Food Harlam 2018, Madison, USA) and allowed to acclimatise for seven days before any procedure.
# [2] = Tolerability and body weight in xenograft study; assay type: in vivo
# Description: (§1) In a first experiment, mice were allocated into groups (six mice per group) as follows: control group (IV 100 uL/10g sterile PBS) and single dose of 20 mg/kg of 3d (IV 100 uL/10 g body weight in sterile PBS).
# (§2) In a subsequent experiment using CD1 nu/nu female mice as described above, mice were allocated into groups (six mice per group) as follows: control group (IV 100 uL/10 g sterile PBS) and 3d at 15 mg/kg given once weekly. […] In the control group the median time to endpoint was 42 days compared to 79 days in the treated group.
# [3] = test system: 83 human genes involved in telomere replication and maintenance in Mia-PaCa2 cells; test: qPCR array, telomere replication and maintenance genes; assay type: cell-based
# Description: Following compound exposure, cells were washed twice in PBS, harvested by trypsinisation, collected by centrifugation (300 g, 5 min, 4° C.) and re-suspended in RLT buffer (Qiagen). Samples were homogenised using QIAshredder spin columns and stored at −80° C. prior to RNA extraction. Three biological replicates were performed on separate days.
# The expression of (i) 83 key human genes involved in telomere replication and maintenance, and (ii) 83 human genes involved in DNA damage signaling responses, was assessed using PCR arrays (SABiosciences). Total RNA was extracted from approximately 1×10^7 Mia-PaCa2 cells treated for 24 h with compound 3d, using the RNeasy kit (Qiagen) with on-column DNaseI treatment to remove residual genomic DNA. The quality of the harvested RNA was confirmed by nanodrop spectroscopy and by analysis with a Human RT^2 RNA QC PCR Array. First-strand cDNA synthesis was performed with the RT^2 first strand kit and qPCR was carried out using the RT^2 qPCR master mix (Qiagen) using 0.5 μg total RNA per array plate in a Stratagene MX-3000P instrument (Agilent, USA). Relative gene expression was determined by the ΔΔCT method using the web-based RT^2 Profiler™ PCR Array Data Analysis software (SABiosciences). Data were normalized to the geometric mean of five housekeeping genes (RPLP10, β-actin, B2M, GAPDH and HPRT1).
# Dose-response curves were used to guide the choice of compound concentration and time-points for the array experiments (FIG. 2a). […] To explore this response continuum the transcriptional signature of cells exposed for 24 h to 20 nM, 40 nM, 80 nM concentrations of 3d, or solvent alone as control, was analysed as described in Materials and Methods.
# However, changes in transcript abundance were modest, with only seven of these genes (MYC, NHP2, PPARG, PRKCB, PTEGES3, RASSF1 and SLX4) showing greater than two-fold abundance changes (FIGS. 2d and 2e).
# [4] = test system: MiaPaCa2 (pancreatic) cells; test: SRB growth inhibition assay, MiaPaCa2; assay type: cell-based, human
# Summary of the method: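 Growth inhibition of MiaPaCa2 cells was measured by SRB staining after 96 h exposure to 2-fold serial dilutions of compound dissolved in DMSO. IC50 was derived from mean absorbance at 540 nm expressed as a percentage of untreated control wells.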
# Panc1 (pancreatic) cells = test: SRB growth inhibition assay, 96 hr exposure, Panc1; assay type: cell-based, human; conditions: Homo sapiens, PANC-1, 96 h exposure
# Summary of the method: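 SRB growth inhibition was measured after 96 h exposure to 2-fold serial dilutions of compound, with cells maintained at 37 °C in 5% CO2 and medium containing 10% FBS. Absorbance at 540 nm was expressed as a percentage of untreated control wells. IC50 was derived from these values.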
# [5] = test system: Mia-Paca2 human pancreatic tumour xenografts; test: MiaPaca-2 tumour xenograft; assay type: in vivo, CD1 nu/nu female mice
# Description: CD1 nu/nu female mice (7-8 weeks old) were housed in microisolator cages, fed with commercial mouse food (Food Harlam 2018, Madison, USA) and allowed to acclimatise for seven days before any procedure. Exponentially growing MiaPaca-2 cells (5×10^6 cell/100 uL unsupplemented RPMI) were inoculated subcutaneously into the right flank (100 uL per mice). Measurements of tumour growth were carried out at least twice a week with digital callipers until tumour masses reached an average size of 0.1 cm^3. Tumour volume was calculated by using the standard formula for determining the volume of an ellipsoid ([length×width×depth×π]/6)).
# as §1, §2
smiles,measurement,setting,value
"CN1CCN(CCCNc2cc3c4c(c(NCCCN5CCN(C)CC5)cc5c4c2C(=O)N(CCCN2CCOCC2)C5=O)C(=O)N(CCCN2CCOCC2)C3=O)CC1 [Compound 3d, 4,9-bis((3-(4-methylpiperazin-1-yl)propyl)amino)-2,7-bis(3-morpholinopropyl)benzo[lmn][3,8]phenanthroline-1,3,6,8(2H,7H)-tetraone]",drug level at 24 hours,[1],no detectable drug
same,Cmax,"[1]; female, Balb/c, mouse, in vivo",1600 nM
same,half-life,"[1]; female, Balb/c, mouse, in vivo",4 h
same,tolerability of therapy,[2]; 15 mg/kg once weekly,well tolerated
same,bodyweight loss,[2]; single dose 20 mg/kg or 15 mg/kg once weekly,without any significant bodyweight loss
same,number of telomere maintenance genes with greater than two-fold abundance changes,"[3]; 20, 40 or 80 nM, 24 h",seven
same,expression of the gene encoding POT1,[3]; borderline of statistical significance,down-regulation
same,number of telomere maintenance genes up or down-regulated to a statistically significant level (P<0.05),"[3]; of 83 genes, 20, 40 or 80 nM, 24 h",30 genes
same,selectivity for Mia-PaCa2 compared to the normal fibroblast line WI-38,[4],~20 fold
same,pIC50,"[4]; Homo sapiens, MIA PaCa-2, SRB assay, 96 h exposure, read-out: IC50 Mia-PaCa2",7.70 to 8.00
same,growth response of MiaPaCa2 cells,[4]; exposure to 80 nM,no growth recovery
same,growth response of MiaPaCa2 cells,[4]; exposure to 160 nM,no viable cells could be recovered by 72 h
same,growth response of MiaPaCa2 cells,[4]; exposure to between 5 nM and 40 nM,titratable growth inhibition with subsequent full recovery of confluent growth at 144 h
same,pIC50,Panc1 (pancreatic) cells,7.70 to 8.00
same,antitumour response,[5]; 15 mg/kg once weekly,sustained antitumour response
same,median time to endpoint,"[5]; 15 mg/kg once weekly, control group 42 days",79 days
same,"mice with a complete response, tumour free at 136 days","[5]; 15 mg/kg once weekly, of six mice",two
same,tumour growth compared to untreated controls,[5]; single dose 20 mg/kg IV,significant growth delay
